Holding throughout (assay): Kinase panel enzymatic inhibition assay (Nanosyn)
Common to all, as to format: biochemical
What all share (details): compound 5 μM; ATP at Km; 30-minute pre-incubation

One assay addresses T1, SRC (Homo sapiens, UniProt P12931).
T1 construct: Nanosyn (contract laboratory that ran the panel)
The essentials: (§1)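 Inhibition is expressed as percent at 5 μM or as IC50, with ATP set at the Km of each kinase and a 30-minute compound pre-incubation. Detection used an accepted enzymatic format such as Caliper mobility shift.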

A further assay has as its system EPH. The essentials:
as §1

The next assay has as its target T2, HGK (Homo sapiens, UniProt O95819).
T2 construct: purchased Nanosyn (contract screening)
The essentials: as §1

A further assay deals with T3, KIT (Homo sapiens, UniProt P10721).
T3 construct: purchased Nanosyn (contract screening)
The essentials: as §1

In the next assay the target is T4, TNIK (Homo sapiens, UniProt Q9UKE5).
T4 construct: Nanosyn (contract laboratory that ran the panel)
Put shortly: as §1

For another assay, the target named is T5, TAOK2 (Homo sapiens, UniProt Q9UL54).
T5 construct: Nanosyn (contract laboratory that ran the panel)
T5 sequence (Q9UL54 1-1235): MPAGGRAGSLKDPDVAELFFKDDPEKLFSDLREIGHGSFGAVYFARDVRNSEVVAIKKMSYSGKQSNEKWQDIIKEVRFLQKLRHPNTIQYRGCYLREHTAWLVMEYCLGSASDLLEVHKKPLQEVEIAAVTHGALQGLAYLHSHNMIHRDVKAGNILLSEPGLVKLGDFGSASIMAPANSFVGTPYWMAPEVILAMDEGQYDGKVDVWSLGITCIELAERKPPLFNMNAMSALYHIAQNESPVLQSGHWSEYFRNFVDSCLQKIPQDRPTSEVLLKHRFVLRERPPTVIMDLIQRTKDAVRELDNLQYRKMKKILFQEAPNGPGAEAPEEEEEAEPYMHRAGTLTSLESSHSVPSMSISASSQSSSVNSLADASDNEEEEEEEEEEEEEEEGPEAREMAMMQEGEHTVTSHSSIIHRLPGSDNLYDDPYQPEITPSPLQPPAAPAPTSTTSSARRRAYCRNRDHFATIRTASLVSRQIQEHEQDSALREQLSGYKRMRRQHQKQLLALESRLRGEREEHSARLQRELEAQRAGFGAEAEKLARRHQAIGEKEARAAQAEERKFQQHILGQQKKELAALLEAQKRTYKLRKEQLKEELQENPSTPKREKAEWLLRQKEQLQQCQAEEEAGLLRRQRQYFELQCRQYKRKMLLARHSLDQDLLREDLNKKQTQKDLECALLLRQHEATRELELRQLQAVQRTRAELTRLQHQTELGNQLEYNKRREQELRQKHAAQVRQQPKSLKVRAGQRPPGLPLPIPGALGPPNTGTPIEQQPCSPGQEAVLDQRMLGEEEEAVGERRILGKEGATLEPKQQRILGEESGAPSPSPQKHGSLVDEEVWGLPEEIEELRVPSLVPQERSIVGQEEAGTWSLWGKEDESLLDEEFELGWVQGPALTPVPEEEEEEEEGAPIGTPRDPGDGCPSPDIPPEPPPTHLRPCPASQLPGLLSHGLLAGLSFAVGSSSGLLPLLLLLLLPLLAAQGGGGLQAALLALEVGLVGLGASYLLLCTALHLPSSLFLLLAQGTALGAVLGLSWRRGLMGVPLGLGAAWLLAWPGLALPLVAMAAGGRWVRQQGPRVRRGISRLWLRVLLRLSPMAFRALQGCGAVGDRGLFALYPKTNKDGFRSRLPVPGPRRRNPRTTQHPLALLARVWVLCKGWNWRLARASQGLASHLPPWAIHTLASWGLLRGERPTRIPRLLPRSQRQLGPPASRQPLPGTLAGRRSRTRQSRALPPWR
The essentials:
as §1

The next assay has as its target T6, CSF1R (Homo sapiens, UniProt P07333).
T6 construct: purchased Nanosyn (contract screening)
Put shortly:
as §1

The target of a further assay is T7, LCK (Homo sapiens, UniProt P06239).
T7 construct: purchased Nanosyn (contract screening)
Put shortly:
as §1

In another assay the target is T8, DDR2 (Homo sapiens, UniProt Q16832).
T8 construct: purchased Nanosyn (contract screening)
T8 sequence (Q16832 22-855): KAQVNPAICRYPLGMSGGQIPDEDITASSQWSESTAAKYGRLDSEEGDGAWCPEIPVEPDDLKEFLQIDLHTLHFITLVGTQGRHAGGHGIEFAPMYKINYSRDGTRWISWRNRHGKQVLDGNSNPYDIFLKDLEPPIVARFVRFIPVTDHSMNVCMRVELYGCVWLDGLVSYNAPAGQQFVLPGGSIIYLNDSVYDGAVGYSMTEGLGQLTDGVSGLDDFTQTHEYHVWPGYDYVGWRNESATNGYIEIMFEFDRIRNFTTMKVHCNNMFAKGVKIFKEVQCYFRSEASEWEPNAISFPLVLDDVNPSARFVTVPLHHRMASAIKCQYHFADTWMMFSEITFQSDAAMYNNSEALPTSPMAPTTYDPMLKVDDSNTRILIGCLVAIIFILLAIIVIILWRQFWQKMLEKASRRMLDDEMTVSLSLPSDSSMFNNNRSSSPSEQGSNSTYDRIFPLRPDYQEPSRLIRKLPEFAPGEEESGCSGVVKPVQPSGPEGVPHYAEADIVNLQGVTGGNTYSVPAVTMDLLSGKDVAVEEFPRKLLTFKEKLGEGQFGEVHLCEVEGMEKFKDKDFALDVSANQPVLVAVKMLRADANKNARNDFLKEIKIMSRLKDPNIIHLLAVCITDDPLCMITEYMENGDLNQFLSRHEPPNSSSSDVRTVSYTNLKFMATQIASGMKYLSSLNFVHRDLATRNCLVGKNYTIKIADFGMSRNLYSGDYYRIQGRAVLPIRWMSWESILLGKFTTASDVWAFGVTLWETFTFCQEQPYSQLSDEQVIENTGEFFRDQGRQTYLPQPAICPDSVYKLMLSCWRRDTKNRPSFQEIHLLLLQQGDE
The essentials: as §1

The target of a further assay is T9, KDR (Homo sapiens, UniProt P35968).
T9 construct: purchased Nanosyn (contract screening)
The essentials: as §1

What is called inhibition is how much of the control response was suppressed. Read a low inhibition as little suppression.

T1 sequence (P12931 whole entry): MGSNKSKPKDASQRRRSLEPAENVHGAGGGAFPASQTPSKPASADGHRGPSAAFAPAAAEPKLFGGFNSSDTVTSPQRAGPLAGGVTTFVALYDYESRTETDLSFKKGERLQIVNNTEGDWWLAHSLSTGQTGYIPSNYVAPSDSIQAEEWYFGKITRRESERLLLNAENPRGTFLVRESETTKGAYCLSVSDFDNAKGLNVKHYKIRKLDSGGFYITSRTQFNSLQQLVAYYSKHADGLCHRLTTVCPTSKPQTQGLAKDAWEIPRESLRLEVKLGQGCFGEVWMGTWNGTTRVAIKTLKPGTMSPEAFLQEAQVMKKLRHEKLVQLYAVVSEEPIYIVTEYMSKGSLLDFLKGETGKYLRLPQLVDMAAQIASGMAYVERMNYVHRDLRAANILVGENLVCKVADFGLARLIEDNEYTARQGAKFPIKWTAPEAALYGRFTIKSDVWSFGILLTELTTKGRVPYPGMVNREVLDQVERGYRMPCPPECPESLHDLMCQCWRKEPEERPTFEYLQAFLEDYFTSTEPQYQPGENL
T6 sequence (P07333 20-972): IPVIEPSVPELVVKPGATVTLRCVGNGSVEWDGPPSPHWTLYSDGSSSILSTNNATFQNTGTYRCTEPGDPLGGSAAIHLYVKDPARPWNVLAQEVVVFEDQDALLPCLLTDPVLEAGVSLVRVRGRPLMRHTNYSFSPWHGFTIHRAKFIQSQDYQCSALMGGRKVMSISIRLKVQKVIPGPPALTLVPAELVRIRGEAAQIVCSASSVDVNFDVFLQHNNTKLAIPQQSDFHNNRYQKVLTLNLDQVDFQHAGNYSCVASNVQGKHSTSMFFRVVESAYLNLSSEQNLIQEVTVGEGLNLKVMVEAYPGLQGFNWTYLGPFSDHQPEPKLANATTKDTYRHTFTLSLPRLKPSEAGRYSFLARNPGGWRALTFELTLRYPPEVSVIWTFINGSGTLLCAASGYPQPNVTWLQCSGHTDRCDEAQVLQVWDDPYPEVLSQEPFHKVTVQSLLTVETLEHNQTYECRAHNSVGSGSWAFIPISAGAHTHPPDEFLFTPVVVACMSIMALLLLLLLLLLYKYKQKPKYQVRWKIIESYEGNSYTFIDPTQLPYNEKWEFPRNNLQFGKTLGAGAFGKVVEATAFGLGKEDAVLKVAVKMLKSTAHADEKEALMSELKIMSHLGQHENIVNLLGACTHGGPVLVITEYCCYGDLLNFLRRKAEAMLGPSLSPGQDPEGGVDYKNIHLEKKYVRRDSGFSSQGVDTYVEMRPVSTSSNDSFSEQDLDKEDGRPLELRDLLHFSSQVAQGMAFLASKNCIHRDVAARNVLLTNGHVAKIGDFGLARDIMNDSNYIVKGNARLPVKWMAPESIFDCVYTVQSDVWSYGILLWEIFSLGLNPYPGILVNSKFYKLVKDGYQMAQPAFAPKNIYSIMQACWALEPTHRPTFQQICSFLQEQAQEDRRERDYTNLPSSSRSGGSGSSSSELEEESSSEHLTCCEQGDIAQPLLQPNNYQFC
T7 sequence (P06239 whole entry): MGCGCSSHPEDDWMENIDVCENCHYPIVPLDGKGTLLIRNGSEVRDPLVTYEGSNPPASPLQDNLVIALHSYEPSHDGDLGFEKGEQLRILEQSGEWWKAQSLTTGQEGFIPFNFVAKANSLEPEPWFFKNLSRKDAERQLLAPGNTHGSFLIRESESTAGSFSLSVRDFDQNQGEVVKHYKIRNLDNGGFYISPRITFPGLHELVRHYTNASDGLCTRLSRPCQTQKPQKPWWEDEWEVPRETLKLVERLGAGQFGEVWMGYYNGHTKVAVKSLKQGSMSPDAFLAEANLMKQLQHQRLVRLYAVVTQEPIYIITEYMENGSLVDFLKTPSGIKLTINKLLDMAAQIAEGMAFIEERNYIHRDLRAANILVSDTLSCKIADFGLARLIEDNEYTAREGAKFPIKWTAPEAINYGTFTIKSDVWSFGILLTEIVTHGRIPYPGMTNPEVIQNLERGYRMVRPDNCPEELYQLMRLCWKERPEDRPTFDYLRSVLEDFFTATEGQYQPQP
T3 sequence (P10721 26-976): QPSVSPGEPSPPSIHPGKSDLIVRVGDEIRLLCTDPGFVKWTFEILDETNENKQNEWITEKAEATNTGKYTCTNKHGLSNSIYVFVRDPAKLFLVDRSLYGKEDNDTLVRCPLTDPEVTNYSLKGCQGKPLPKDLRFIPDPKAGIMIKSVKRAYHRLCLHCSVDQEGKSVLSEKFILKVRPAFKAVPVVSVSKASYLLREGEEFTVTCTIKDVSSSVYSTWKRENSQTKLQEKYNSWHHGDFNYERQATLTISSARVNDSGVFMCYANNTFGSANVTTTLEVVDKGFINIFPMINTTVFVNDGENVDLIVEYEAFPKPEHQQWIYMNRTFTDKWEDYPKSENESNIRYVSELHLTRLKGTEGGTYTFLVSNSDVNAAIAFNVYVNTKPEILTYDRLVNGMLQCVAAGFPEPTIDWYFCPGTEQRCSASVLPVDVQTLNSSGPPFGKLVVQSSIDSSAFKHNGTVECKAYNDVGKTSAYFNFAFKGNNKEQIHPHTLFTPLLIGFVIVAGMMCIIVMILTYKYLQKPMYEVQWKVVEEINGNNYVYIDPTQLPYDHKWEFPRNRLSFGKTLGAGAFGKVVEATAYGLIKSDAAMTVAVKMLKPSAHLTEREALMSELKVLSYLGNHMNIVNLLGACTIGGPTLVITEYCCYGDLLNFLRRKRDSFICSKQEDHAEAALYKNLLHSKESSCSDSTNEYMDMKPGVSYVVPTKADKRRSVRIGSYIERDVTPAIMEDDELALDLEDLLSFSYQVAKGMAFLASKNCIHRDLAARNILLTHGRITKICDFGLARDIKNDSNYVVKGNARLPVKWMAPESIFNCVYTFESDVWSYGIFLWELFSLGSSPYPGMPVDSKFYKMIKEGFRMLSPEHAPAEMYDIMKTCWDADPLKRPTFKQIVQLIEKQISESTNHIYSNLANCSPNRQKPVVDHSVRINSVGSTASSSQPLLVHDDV
T4 sequence (Q9UKE5 whole entry): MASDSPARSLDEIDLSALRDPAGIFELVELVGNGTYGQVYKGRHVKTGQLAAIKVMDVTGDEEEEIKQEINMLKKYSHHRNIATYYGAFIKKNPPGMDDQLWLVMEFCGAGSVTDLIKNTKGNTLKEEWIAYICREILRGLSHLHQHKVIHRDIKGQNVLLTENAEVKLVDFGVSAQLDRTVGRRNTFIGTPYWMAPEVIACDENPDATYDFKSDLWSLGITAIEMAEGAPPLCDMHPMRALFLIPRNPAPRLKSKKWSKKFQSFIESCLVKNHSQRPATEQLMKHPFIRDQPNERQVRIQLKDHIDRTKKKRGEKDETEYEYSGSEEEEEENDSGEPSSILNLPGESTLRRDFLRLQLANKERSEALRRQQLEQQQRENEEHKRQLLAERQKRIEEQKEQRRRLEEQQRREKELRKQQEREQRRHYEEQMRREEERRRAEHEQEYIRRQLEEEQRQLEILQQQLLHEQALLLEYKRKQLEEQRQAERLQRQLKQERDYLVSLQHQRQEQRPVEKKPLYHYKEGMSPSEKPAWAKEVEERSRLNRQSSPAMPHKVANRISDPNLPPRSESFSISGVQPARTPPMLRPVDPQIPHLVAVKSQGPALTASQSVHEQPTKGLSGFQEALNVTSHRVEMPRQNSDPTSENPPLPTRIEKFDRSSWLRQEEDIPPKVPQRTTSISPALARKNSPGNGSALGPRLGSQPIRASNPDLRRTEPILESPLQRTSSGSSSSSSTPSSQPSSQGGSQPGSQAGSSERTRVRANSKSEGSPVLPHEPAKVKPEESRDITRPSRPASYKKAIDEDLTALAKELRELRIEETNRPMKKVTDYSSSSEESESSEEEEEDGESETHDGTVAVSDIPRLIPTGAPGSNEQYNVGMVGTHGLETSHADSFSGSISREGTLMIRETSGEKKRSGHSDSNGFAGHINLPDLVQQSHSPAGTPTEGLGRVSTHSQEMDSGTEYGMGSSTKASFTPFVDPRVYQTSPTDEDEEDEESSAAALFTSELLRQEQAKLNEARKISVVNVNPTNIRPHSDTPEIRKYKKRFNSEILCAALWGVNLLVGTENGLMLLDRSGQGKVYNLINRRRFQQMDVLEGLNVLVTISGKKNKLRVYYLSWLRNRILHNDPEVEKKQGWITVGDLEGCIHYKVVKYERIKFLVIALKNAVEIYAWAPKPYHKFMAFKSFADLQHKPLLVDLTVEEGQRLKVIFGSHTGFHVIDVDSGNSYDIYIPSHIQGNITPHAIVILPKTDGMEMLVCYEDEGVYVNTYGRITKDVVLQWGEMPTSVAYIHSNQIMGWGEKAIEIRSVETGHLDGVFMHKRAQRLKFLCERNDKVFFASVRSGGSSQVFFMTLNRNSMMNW

As to `Cc1ccc(NC(=O)c2cc([S+](C)[O-])n(-c3ccc(F)cc3)n2)cc1-c1cc(OCCO)nc(N2CCOCC2)c1` (centres unmarked) [Ex10, 1-(4-fluorophenyl)-N-(3-(2-(2-hydroxyethoxy)-6-morpholinopyridin-4-yl)-4-methylphenyl)-5-(methylsulfinyl)-1H-pyrazole-3-carboxamide], the inhibition at 5 µM was < 79% on SRC; < 79% at HGK; < 79% on KIT; < 79% on TNIK; 90 to 94% on TAOK2; < 79% against CSF1R. The values for the inhibition at 5 µM against LCK, against DDR2 and against KDR were < 79%, 80 to 89% and < 79%, respectively. In the assay with EPH, the “kinase inhibition, EPH” value is “D (D=79% and less)”.

In the case of `Cc1ccc(NC(=O)c2cc([S+](C)[O-])n(-c3ccc(F)cc3)n2)cc1C#Cc1cnc2cccnn12` (centres unmarked) [Ex6, 1-(4-fluorophenyl)-N-(3-(imidazo[1,2-b]pyridazin-3-ylethynyl)-4-methylphenyl)-5-(methylsulfinyl)-1H-pyrazole-3-carboxamide], the inhibition at 5 µM against SRC was 90 to 94%; at HGK, < 79%; against KIT, 90 to 94%; against TNIK, < 79%; against TAOK2, < 79%; at CSF1R, 90 to 94%. The inhibition at 5 µM is ≥ 95% on LCK, < 79% at DDR2 and < 79% against KDR. The “kinase inhibition, EPH” value in the assay on EPH was “D (D=79% and less)”.

Regarding `Cc1ccc(NC(=O)c2cc(S(C)(=O)=O)n(-c3ccc(F)cc3)n2)cc1Nc1ccc2ncn(C)c(=O)c2c1` [Ex4, 1-(4-fluorophenyl)-N-(4-methyl-3-((3-methyl-4-oxo-3,4-dihydroquinazolin-6-yl)amino)phenyl)-5-(methylsulfonyl)-1H-pyrazole-3-carboxamide], the inhibition at 5 µM against SRC was < 79%; against HGK it was < 79%; at KIT it was 90 to 94%; on TNIK, < 79%; on TAOK2, < 79%; at CSF1R, < 79%. The inhibition at 5 µM against LCK was < 79%; at DDR2, ≥ 95%; on KDR, < 79%. The “kinase inhibition, EPH” value in the assay on EPH was “D (D=79% and less)”.

Take `CCOC(=O)Nc1cn2nc(Nc3cc(NC(=O)c4cc([S+](C)[O-])n(-c5ccc(F)cc5)n4)ccc3C)ccc2n1` (centres unmarked) [Ex18, ethyl (6-((5-(1-(4-fluorophenyl)-5-(methylsulfinyl)-1H-pyrazole-3-carboxamido)-2-methylphenyl)amino)imidazo[1,2-b]pyridazin-2-yl)carbamate]: the inhibition at 5 µM on SRC was 80 to 89%; on HGK it was < 79%; against KIT it was 80 to 89%; at TNIK, < 79%; at TAOK2, < 79%; against CSF1R it was 80 to 89%. In addition, the inhibition at 5 µM was ≥ 95% on LCK, ≥ 95% against DDR2 and < 79% at KDR. In addition, in the assay on EPH, the “kinase inhibition, EPH” value was “D (D=79% and less)”.

`Cc1ccc(NC(=O)c2cc([S+](C)[O-])n(-c3ccc(F)cc3)n2)cc1-c1cc(N2CCOCC2)c(=O)n(C)c1` (centres unmarked) [Ex11, 1-(4-fluorophenyl)-N-(4-methyl-3-(1-methyl-5-morpholino-6-oxo-1,6-dihydropyridin-3-yl)phenyl)-5-(methylsulfinyl)-1H-pyrazole-3-carboxamide]: the inhibition at 5 µM against SRC, against HGK, against KIT, on TNIK, against TAOK2 and on CSF1R was < 79% each time. Moreover, the inhibition at 5 µM at LCK, against DDR2 and against KDR was < 79% in each case. In addition, the “kinase inhibition, EPH” value in the assay with EPH was “D (D=79% and less)”.

Values taken from patent US20240400577A1, “MODULATORS OF PROTEIN KINASES” (VIBLIOME THERAPEUTICS, LLC, priority 2021, published 2024).
